For data set [1], the system named is Rattus norvegicus. Nature of the data set: Anti-inflammatory activity in Rattus norvegicus Sprague-Dawley (rat) assessed as inhibition of carrageenan-induced paw edema at 10 mg/kg, po after 1.5 to 3 hr relative to control. Type of data set: functional.
The subject of data set [2] is Rattus norvegicus. Nature of the data set: Ulcerogenic activity in Rattus norvegicus Sprague-Dawley (rat) assessed as ulcer index at 10 mg/kg, po after 8 hr. Type of data set: toxicity, organism-based. Details: dose 10 mg/kg, route oral. The following applies: in vivo.
The target of data set [3] is T1, Prostaglandin G/H synthase 1 (Ovis aries) (UniProt P05979).
T1 sequence (whole entry): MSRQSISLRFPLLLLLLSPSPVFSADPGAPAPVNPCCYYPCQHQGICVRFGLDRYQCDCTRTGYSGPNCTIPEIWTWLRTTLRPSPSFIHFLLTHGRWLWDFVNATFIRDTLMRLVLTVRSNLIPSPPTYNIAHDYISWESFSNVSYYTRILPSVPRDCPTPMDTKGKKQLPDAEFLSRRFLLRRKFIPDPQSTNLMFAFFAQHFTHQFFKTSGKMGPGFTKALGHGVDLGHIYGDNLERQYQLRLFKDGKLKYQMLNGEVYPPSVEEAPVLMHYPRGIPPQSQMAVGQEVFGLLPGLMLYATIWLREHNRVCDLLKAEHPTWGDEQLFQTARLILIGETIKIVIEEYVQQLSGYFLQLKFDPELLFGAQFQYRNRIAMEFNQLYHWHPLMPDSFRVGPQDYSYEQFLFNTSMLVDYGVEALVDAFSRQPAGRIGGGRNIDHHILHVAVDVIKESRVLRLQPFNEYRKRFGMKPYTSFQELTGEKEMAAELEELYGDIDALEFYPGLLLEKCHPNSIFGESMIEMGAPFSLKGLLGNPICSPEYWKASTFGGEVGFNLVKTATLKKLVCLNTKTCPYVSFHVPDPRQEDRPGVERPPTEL
Nature of the data set: Inhibition of Ovis aries (sheep) COX-1 assessed as appearance of oxidized N,N,N',N'-tetramethyl-p-phenylenediamine at 20 uM by colorimetric analysis.

As for `COc1ccc2c(c1)c(CC(=O)Oc1c(Cl)c(Cl)c(Cl)c(Cl)c1Cl)c(C)n2C(=O)c1ccc(Cl)cc1`, the inhibition in vivo at 10 mg/kg in the data set on Rattus norvegicus [1] was determined as 0%.
For the molecule `COc1ccc2c(c1)c(CC(=O)O)c(C)n2C(=O)c1ccc(Cl)cc1` [INDOMETHACIN], in the data set on Rattus norvegicus [1], the inhibition in vivo at 10 mg/kg came out at 13.9%. In addition, the UI in the data set with Rattus norvegicus [2] is recorded as 50.
Take `COc1ccc2c(c1)c(CC(=O)OCc1ccoc1)c(C)n2C(=O)c1ccc(Cl)cc1`: in the data set on Rattus norvegicus [1], the inhibition in vivo at 10 mg/kg was 0%.
For `CCOC(=O)c1ccc(OC(=O)Cc2c(C)n(C(=O)c3ccc(Cl)cc3)c3ccc(OC)cc23)cc1`, the inhibition in vivo at 10 mg/kg in the data set on Rattus norvegicus [1] stood at 19.9%. In addition, in the data set with Rattus norvegicus [2], the UI was found to be 0. Further, the inhibition in data set [3] worked out at 12.9%.
With `CCCCOC(=O)c1ccc(OC(=O)Cc2c(C)n(C(=O)c3ccc(Cl)cc3)c3ccc(OC)cc23)cc1`, the inhibition in vivo at 10 mg/kg with Rattus norvegicus [1] was 7.83%.
On to `COc1ccc2c(c1)c(CC(=O)OCCN1CCNCC1)c(C)n2C(=O)c1ccc(Cl)cc1`, for which the inhibition in vivo at 10 mg/kg with Rattus norvegicus [1] is 0%.
Take `COc1ccc2c(c1)c(CC(=O)OCCN1CCCCC1)c(C)n2C(=O)c1ccc(Cl)cc1`: the inhibition in vivo at 10 mg/kg in the data set on Rattus norvegicus [1] was found to be 7.23%.
Consider `COc1ccc2c(c1)c(CC(=O)Oc1ccc(Cl)cc1)c(C)n2C(=O)c1ccc(Cl)cc1`, for which the inhibition in vivo at 10 mg/kg in the data set on Rattus norvegicus [1] amounted to 0%.
Take `CCc1ccc(OC(=O)Cc2c(C)n(C(=O)c3ccc(Cl)cc3)c3ccc(OC)cc23)cc1`: in the data set on Rattus norvegicus [1], the inhibition in vivo at 10 mg/kg came to 2.41%.
The same measure, in the same setting: in the case of `COc1ccc2c(c1)c(CC(=O)OCCc1c(C)cc(C)cc1C)c(C)n2C(=O)c1ccc(Cl)cc1` it was 9.04%; in that of `COc1ccc2c(c1)c(CC(=O)OCc1ccccc1)c(C)n2C(=O)c1ccc(Cl)cc1`, 3.61%.
In the case of `COc1ccc2c(c1)c(CC(=O)Oc1ccc([N+](=O)[O-])cc1)c(C)n2C(=O)c1ccc(Cl)cc1`, the inhibition in vivo at 10 mg/kg in the data set with Rattus norvegicus [1] stood at 4.81%.

These data come from ChEMBL document CHEMBL3045409, “Synthesis and biological evaluation of ester derivatives of indomethacin as selective COX-2 inhibitors” (Med Chem Res, 2012).
